Results on one compound are retold here after patent publication US20150259371A1, “METHODS AND COMPOUNDS FOR INHIBITING GLYCOSYLTRANSFERASES” (SIMON FRASER UNIVERSITY, priority 2010, published 2015).

Data set [1] deals with O-GlcNAc levels in mice tissues. The experiment in a line: O-GlcNAc levels in mouse tissues after intraperitoneal dosing. As to conditions: 300 mg/kg intraperitoneally, 16 hours. Type of data set: in vivo. The method, then:
Ac-5SGlcNAc 9 and the deprotected analogue with the hexyl substituent at the C2 position 28 have been analyzed for effectiveness at decreasing O-GlcNAc levels in mice. Pilot studies were conducted with mice dosed in triplicate with either compound or vehicle alone. Compounds were dosed at 300 mg/kg intraperitoneally using 75% DMSO as vehicle for delivery of 9 and phosphate-buffered saline (PBS) for delivery of 28. Mice were euthanized using a CO2 chamber after 16 hours exposure to either compound, and tissues (liver, lung, heart, kidney, spleen, pancreas, brain, blood, fat and muscle) harvested and flash frozen in liquid nitrogen. Frozen tissues were ground using a pestle and mortar, and resuspended in cell lysis buffer (50 mM NaH2PO4, 150 mM NaCl, 0.1% SDS, 1% NP-40, 0.25% sodium deoxycholate, 1 mM EDTA, 30 mM sodium fluoride, 30 mM β-glycerophosphate, 5 mM sodium pyrophosphate, 1 mM Thiamet-G, protease inhibitor cocktail (Roche)) at a concentration of 100 mg tissue1 mL buffer prior to homogenization. Homogenates were centrifuged at 13,000 rpm for 20 min, the supernatant removed, added to 2×SDS-PAGE loading buffer and boiled for […]. SDS-PAGE and western blots were performed using standard procedures. Blots were probed using anti-O-GlcNAc antibody (CTD110.6, Santa Cruz Biotechnology) and anti-actin antibody for a loading control.

For data set [2], the system named is N-glycosylation of IgG from mouse hybridoma cell line. The experiment in a line: Lectin blots of IgG immunoprecipitated from treated mouse hybridoma cells. The settings on record: 0-1000 μM, 24 h. Type of data set: cell-based.
The test system of the next data set is cell lines examined. In words: Qualitative observation of cell morphology and proliferation in treated cell lines. Type of data set: cell-based. The settings on record: at the doses assayed. The method, then:
Despite OGA levels continuing to drop and OGT levels rising over 5 days of dosing, O-GlcNAc levels remained low and unchanged after 24 hours (FIG. 2C).
(§1) Cellular responses to Ac-5SGlcNAc (9) treatment and consequent decreases in O-GlcNAc levels were evaluated. […] We quantitatively evaluated cell proliferation and established growth curves over the course of 5 days in both CHO and EMEG32 heterozygous mouse embryonic fibroblast cells treated with 50 μM Ac-5SGlcNAc (9), 50 μM Ac-GlcNAc (G), or vehicle (FIGS. 5A-B).

The next data set concerns CHO cells. The experiment in a line: Cell proliferation growth curves over 5 days, CHO cells. The settings on record: 50 μM. Format: cell-based, Chinese hamster. The method, then:
(A) Cell proliferation curves over the course of 5 days for CHO cells following no (circles), 50 μM Ac-GlcNAc (squares) or 50 μM Ac-5SGlcNAc (triangles) treatment. The error bars indicate the deviation from the mean for triplicate measurements. […] Upper panel, probed with anti-O-GlcNAc antibody (CTD110.6); lower panel, probed with anti-actin antibody. (B) Cell proliferation curves over the course of 5 days for EMEG heterozygous mouse embryonic fibroblast cells following no (circles), 50 μM Ac-GlcNAc (squares) or 50 μM Ac-5SGlcNAc (triangles) treatment. The error bars indicate the deviation from the mean for triplicate measurements. […] Upper panel, probed with anti-O-GlcNAc antibody (CTD110.6); lower panel, probed with anti-actin antibody. (C) Western blots of CHO cell lysates following no (C) or Ac-5SGlcNAc administration at 50 μM for 4 days. Probed with (from top to bottom) anti-Spl antibody, anti O-GlcNAc (CTD110.6) antibody and anti-actin antibody. Full blot of the anti-Sp 1 is shown in panel (d). […]
as §1

Turning to `CC(=O)NC1C(OC(C)=O)SC(COC(C)=O)C(OC(C)=O)C1OC(C)=O` [Compound 9, N-Acetyl-1,3,4,6-tetra-O-acetyl-α-D-5-thio-glucosamine], the “O-GlcNAc levels in tissues” value in data set [1] was “effective at decreasing O-GlcNAc levels during the 16 hour dosing period in the liver, lung, heart, kidney, spleen, pancreas, fat and muscle”. Also, the “GNA and ConA reactivity of hybridoma IgG” value in data set [2] was “slight decrease in GNA and ConA reactivity when using a very high dose”. Besides, the “changes in cell morphology or rate of proliferation” value in the data set on cell lines examined was “no apparent changes in cell morphology or rate of proliferation”. For the same compound, the growth rate result with CHO cells was “indistinguishable from those of Ac-GlcNAc (G) and vehicle treated cells”.
